{"source": "patent US11351229B2", "about": "“Combination therapies for treating infantile spasms and other treatment resistant epilepsies” (Baylor College of Medicine, priority 2017, dated 2022)", "key": {"[1]": {"assay": "Plasma concentration of vigabatrin alone or co-administered with (1-3)IGF-1", "format": "in vivo, rat", "conditions": "vigabatrin 125 mg/kg, (1-3)IGF-1 20 mg/kg, rats", "experimental": "FIG. 21 illustrates plasma concentration for vigabatrin (administered to rats at 125 mg/kg) when administered alone or in combination with (1-3)IGF-1 (20 mg/kg)."}, "[2]": {"system": "IGF-1R-PI3K-AKT and IGF-1R-Ras-ERK signaling cascades", "assay": "Western blots of IGF-1R signaling in neocortex (Example 9)", "format": "in vivo", "experimental": "Briefly, brains were quickly removed from the skull under anesthesia and the cortex dissected free from adhering tissue. It was then snap frozen on dry ice and later homogenized by sonication. Protein concentrations were determined by the BCA assay. Equal quantities of protein (10 μg) from each sample were resolved by polyacrylamide gel electrophoresis. The primary antibodies used were against: pAKT Thr308, pAkt Ser473, pS6 Ser240/244, AKT, S6, IGF-1R. Secondary antibodies were conjugated to horseradish peroxidase and visualization of immunoreactive bands was produced by enhanced chemiluminescence and then exposed to Kodak Biomax film. After digitization, band intensity was quantified with Image J Image software. Blots were also probed with antibodies to GAPDH, which served as a loading control. Band intensity was normalized to control values on the same blot.\nThe experiments were performed using N=5 for both control and epileptic groups. Animals were 6 weeks old and sacrificed 2 hours after treatment.\nAnimals (6 weeks old) were treated with 50 mg/kg of PPP or DMSO vehicle. Four hours later, they received 20 mg/kg of (1-3)IGF-1 or vehicle. Two hour later the neocortex was collected.\nVigabatrin (125 mg/kg) was injected 2 and 24 hours before collecting neocortex. Western blots from 2 animals and controls are shown in upper panel (FIG. 25A) for bar graphs n=6. For the combination study, the animals were administered vigabatrin (125/mg/kg), and (1-3)IGF-1 (20 mg/kg) was injected 30 min before collecting cortex in the combination group and the (1-3)IGF-1-only group. Controls received vehicle only. The results are illustrated in FIG. 25B."}, "[3]": {"system": "epileptic spasms (TTX rat model of infantile spasms)", "format": "in vivo"}, "[4]": {"system": "hypsarrhythmia (abnormal EEG pattern)", "assay": "EEG analysis for hypsarrhythmia in rats with spasms", "format": "in vivo, rat", "conditions": "VGB 325 mg/kg/day, 2 weeks; 5 rats with pattern at baseline"}, "[5]": {"conditions": "human, in vivo; cited from earlier work"}, "[6]": {"conditions": "each drug alone: VGB 250 mg/kg/day or (1-3)IGF-1 10 mg/kg/day, 2 weeks"}}, "note": "Like-named read-outs stand apart in the source and are kept apart here."}
{"compound": "NCC(=O)N1CCC[C@H]1C(=O)N[C@@H](CCC(=O)O)C(=O)O", "note": "[(1-3)IGF-1, Gly-Pro-Glu]", "values": [{"measurement": "effect of co-administration on vigabatrin pharmacokinetics (plasma concentration)", "setting": "[1]", "result": "no discernible effect"}]}
{"compound": "COc1cc([C@@H]2c3cc4c(cc3[C@H](O)[C@H]3COC(=O)[C@@H]23)OCO4)cc(OC)c1OC", "note": "[picropodophyllin, (5R,5aR,8aS,9R)-5-hydroxy-9-(3,4,5-trimethoxyphenyl)-5a,6,8a,9-tetrahydro-5H-[2]benzofuro[5,6-f][1,3]benzodioxol-8-one]", "values": [{"measurement": "effect on (1-3)IGF-1 induced activation of AKT", "setting": "[2]; 50 mg/kg PPP, 4 hours before 20 mg/kg (1-3)IGF-1, neocortex collected 2 hours later", "result": "blocks"}]}
{"compound": "C=CC(N)CCC(=O)O", "note": "(stereo not shown) [vigabatrin, γ-vinyl-GABA]", "values": [{"measurement": "spasm counts (in words)", "setting": "[3]; VGB 325 mg/kg/day i.p., 2 weeks, vs vehicle controls", "result": "dramatic reduction in spasm counts"}, {"measurement": "effect on spasm counts (in words)", "setting": "[3]; [6]", "result": "modest effects on spasm counts"}, {"measurement": "presence of spasms after treatment, all rats", "setting": "[3]; [6]", "result": "continued to have spasms"}, {"measurement": "effect on % animals with spasms", "setting": "[3]; individual administration: vigabatrin 125 mg/kg/day or (1-3)IGF-1 20 mg/kg/day, 2 weeks", "result": "no measurable effect"}, {"measurement": "effect on % animals with spasms", "setting": "[3]; individual administration: vigabatrin 250 mg/kg/day or (1-3)IGF-1 10 mg/kg/day, 2 weeks", "result": "no measurable effect"}, {"measurement": "hypsarrhythmia after treatment", "setting": "[4]", "result": "eliminated in all of them"}, {"measurement": "activation of IGF-1R signaling", "setting": "[2]; vigabatrin 125 mg/kg, 2 and 24 hours before collecting neocortex", "result": "does not activate"}, {"measurement": "effect on (1-3)IGF-1-induced IGF-1R signaling", "setting": "[2]; vigabatrin 125 mg/kg, (1-3)IGF-1 20 mg/kg 30 min before collecting cortex", "result": "does not alter"}, {"measurement": "adults with visual field loss", "setting": "[5]", "result": 52, "unit": "%"}, {"measurement": "children with visual field loss", "setting": "[5]", "result": 34, "unit": "%"}, {"measurement": "vigabatrin-treated subjects with visual field loss", "setting": "[5]", "result": 44, "unit": "%"}]}
{"compound": "rhIGF-1: rhIGF-1 from Peprotech; the full length growth factor", "values": [{"measurement": "rats that became free of spasms", "setting": "[3]; rhIGF-1 1 mg/kg/day, 3 weeks", "result": "One of the 5"}, {"measurement": "rats that continued to have spasms after treatment", "setting": "[3]; rhIGF-1 1 mg/kg/day, 3 weeks", "result": "4 of 5"}, {"measurement": "reduction of spasm counts, on average", "setting": "[3]; rhIGF-1 1 mg/kg/day, 3 weeks", "result": 40, "unit": "%"}]}
